Results: patent US7750148B2, “Intermediate compound for the production of β-lactamase-resistant cephalosporin ester compounds and salts thereof” (Zhejiang Yongning Pharmaceutical Factory, priority 2003, dated 2010)
≈ marks a conversion by molar mass, not a printed value. Like-named read-outs stand apart in the source and are kept apart here.

Tests used:
[1] = test system: Bacillus proteus 49085, Proteus morganii 49086; test: Ex vivo antibacterial activity experiment after mouse is administered, conclusions (strains not separated); type: in vivo
Description: the sources of tested samples (YR-1, YR-2) and control samples (CTM, CRX, CTM+SBT 1:1 and CRX+SBT 1:1) are the same as above. Bacillus proteus 49085, Proteus morganii 49086, inoculated 10^5CFU/ML each dish. Mueller-Hinton Agar (M.H) culture medium, batch number 000707 (Shanghai Reagent Supply Research Center, China Diarrhea Disease Control). Strain: Kunming mice; source: Animal Facility of Shanghai Institute of Pharmaceutical Industry; certificate number: Hudonghezhengzi No. 107; animal numbers: 120; Sex: same number of male and female mice; Body weight: 18-21 g; fast time: 16 hours. Group 1: CTM, CRX, CTM+SBT 1:1, CRX+SBT 1:1 were given at a dosage of 500 mg/kg intravenously, collecting blood at 10 minutes, 30 minutes, 1 hour, 2 hours, 4 hours, 8 hours after administration. Group 2: […] Kunming mice were randomly divided into several groups according to body weight of empty stomach and sex. Collecting blood of three mice at different time point, anticoagulated with heparin, centrifugated and separated plasma, quantitative spotting, semi-quantitated antibacterial activity according to the size of bacterial inhibition ring.

[2] = Mouse maximum tolerable dose experiment (acute toxicity); type: in vivo, Kunming mice; settings: for abnormalities in the organs after killed (autopsy) / symptoms of toxic reactions: 5 g/kg intragastric; for abnormalities in the organs after killed (autopsy): after 7 days observation; for symptoms of toxic reactions: fasted for 16 hours; for symptoms of toxic reactions / Death rate: 7 days observation; for Death rate / Death number during observation: 5 g/kg/24 hr intragastric
Method: tested samples (YR-1, YR-2) are the same as above.
Strain: Kunming mice; source: Animal Facility of Shanghai Institute of Pharmaceutical Industry; certificate number: Hudonghezhengzi No. 107; animal numbers: 20; Sex: same number of male and female mice; Body weight: 18-21 g; fast time: 16 hours.
Preparation of samples: 5 g/kg (prepared with 5% carboxymethyl cellulose CMC); volume accepted: 0.6 ml/20 g body weight/each time; administration times: once; dosage: 5 g/kg/24 hr
Intragastric Administration
20 mice, 10 male and 10 female, were given YR-1 or YR-2 via intragastric administration, observed manifestation of mice toxic symptom immediately after administration, recorded mice death number.
Observed manifestation of mice toxic symptom immediately after administration, observed twice each day (morning and evening).
Toxic reaction: recorded behaviors of mice, skin, respiration, urination and defecation, appetite, checked if there are abnormal secretions appeared in the nose, eye and mouth.
Observation period: 7 days, killed all the surviving mice after observation period, and autopsied to see if there is any abnormality existed in the mice organs.

[3] = test system: Staphylococcus epidermidis 26069; test: In vitro antibacterial activity (MIC, agar double dilution); type: cell-based; settings: Staphylococcus epidermidis 26069, 10^5CFU/ML each point, 24 hours at 37° C.
Description: (§1) tested samples YR-1, YR-2 were the ones prepared in example 1 and example 5 respectively, control samples were cefetamet sodium (CTM), cefuroxime sodium (CRX), cefetamet sodium+sulbactam sodium (CTM+SBT) (molar ratio 1:1), cefuroxime+sulbactam sodium (CRX+SBT) (molar ratio 1:1). All control samples (have been sold on the market) were supplied by Zhejiang Yongning pharmaceutical factory.
(§2) Staphylococcus epidermidis 26069 and Bacillus aerogenes 45102 were supplied by Beijing Drug & Biology Product Appraisal Bureau.
(§3) Mueller-Hinton Agar (M.H) culture medium, batch number 20040528 (Shanghai Reagent Supply Research Center, China Diarrhea Disease Control).
(§4) Adopted agar double dilution, inoculated using multipoint inoculator, inoculated 10^5CFU/ML each point, cultured for 24 hours at 37° C., observed and recorded the results, set the least concentration of the antibacterial drug that can inhibit bacteria growth as the minimum inhibitory concentration (MIC).

[4] = test system: Bacillus aerogenes 45102; test: as above; type: cell-based
Description: as §1, §2, §3, §4

[5] = test system: Diplococcus lanceolatus 0031; test: as above; type: cell-based; settings: Diplococcus lanceolatus 0031, 10^5CFU/ML each point, 24 hours at 37° C.
Description: as §1
Diplococcus lanceolatus 0031 was supplied by Shanghai First People's Hospital.
as §3, §4

[6] = test system: Shigella bogdii 51313; test: as above; type: cell-based
Description: as §1
(§5) Staphylococcus aureus 26003, Diplococcus lanceolatus 31002, E. coli 44102, Shigella sonnet 51081, Shigella bogdii 51313, Shigella flexneri 51573, Proteus mirabilis 49005, Bacillus proteus 49085, Proteus morganii 49086, Pseudomonas aeruginosa 10124, Bacillus pneumoniae 46101, Salmonella enteritidis 50041, Salmonella typhi 50097, Citrobacter 48017, Candida ciferii 41002 were supplied by Shanghai Hygienic and Antiepidemic Station.
as §3, §4

[7] = test system: Bacillus proteus 49085; test: as above; type: cell-based
Description: as §1, §5, §3, §4

[8] = test system: Diplococcus lanceolatus 31002; test: as above; type: cell-based
Description: as §1, §5, §3, §4

[9] = test system: Shigella sonnet 51081; test: as above; type: cell-based
Description: as §1, §5, §3, §4

[10] = test system: Bacillus pneumoniae 46101; test: as above; type: cell-based
Description: as §1, §5, §3, §4

[11] = test system: Pseudomonas aeruginosa 10124; test: as above; type: cell-based
Description: as §1, §5, §3, §4

[12] = test system: Shigella flexneri 51573; test: as above; type: cell-based
Description: as §1, §5, §3, §4

[13] = test system: Candida ciferii 41002; test: as above; type: cell-based
Description: as §1, §5, §3, §4

[14] = test system: Proteus morganii 49086; test: as above; type: cell-based; set-up: MIC (as restated in the conclusions): unit not given here; settings: for antibacterial activities enhanced versus CTM or CRX used solely: YR-1 vs CTM, YR-2 vs CRX
Description: as §1, §5, §3, §4

[15] = mice, intragastric administration 1000 mg/kg
[16] = read-out: MIC of the drug to bacteria

Row | Molecule | blood drug concentrations ([1]; in vivo, 1000 mg/kg) | antibacterial activities in blood 8 hours after administration [1, 15] | abnormalities in the organs after killed (autopsy) ([2]; Kunming mice) | symptoms of toxic reactions ([2]; Kunming mice) | Death rate ([2]; female mice) | Death number during observation ([2]; female mice, day 1) | Death number during observation ([2]; female mice, day 2) | Death number during observation ([2]; female mice, day 3) | Death number during observation ([2]; female mice, day 4) | Death number during observation ([2]; female mice, day 5) | Death number during observation ([2]; female mice, day 6) | Death number during observation ([2]; female mice, day 7) | Death rate ([2]; male mice) | Death number during observation ([2]; male mice, day 1) | Death number during observation ([2]; male mice, day 2) | Death number during observation ([2]; male mice, day 3) | Death number during observation ([2]; male mice, day 4) | Death number during observation ([2]; male mice, day 5) | Death number during observation ([2]; male mice, day 6) | Death number during observation ([2]; male mice, day 7) | other results
1 | 5-thia-1-aza-bicyclo [4,2,0] octane-2-ene-2-carboxylic acid, 7-[[(2-amino-4-thiazolyl) (methoxy imine) acetyl]amino]-3-methyl-8-oxo-, [[3,3-dimethyl-4,4-dioxy-7-oxo-4-thia-1-aza-bicyclo [3,2,0] heptane-2-group]carbonyloxy]oxy]methyl ester [YR-1] | stable and persistent | can be detected | no abnormalities were observed in the organs | no obvious abnormal symptoms of toxic reactions | 0% | 0 | 0 | 0 | 0 | 0 | 0 | 0 | 0% | 0 | 0 | 0 | 0 | 0 | 0 | 0 | half-life period (compared with the intravenous controls) ([1]; mouse, in vivo, 1000 mg/kg): longer half-life period; MIC of the drug to bacteria [3]: 50 µg/mL; MIC of the drug to bacteria ([4]; Bacillus aerogenes 45102, 10^5CFU/ML each point, 24 hours at 37° C.): 0.39 µg/mL; MIC of the drug to bacteria [5]: 50 µg/mL; MIC of the drug to bacteria ([6]; Shigella bogdii 51313, 10^5CFU/ML each point, 24 hours at 37° C.): 0.39 µg/mL; MIC of the drug to bacteria ([7]; Bacillus proteus 49085, 10^5CFU/ML each point, 24 hours at 37° C.): 0.195 µg/mL; MIC of the drug to bacteria ([8]; Diplococcus lanceolatus 31002, 10^5CFU/ML each point, 24 hours at 37° C.): 100 µg/mL; MIC of the drug to bacteria ([9]; Shigella sonnet 51081, 10^5CFU/ML each point, 24 hours at 37° C.): 0.39 µg/mL; MIC of the drug to bacteria ([10]; Bacillus pneumoniae 46101, 10^5CFU/ML each point, 24 hours at 37° C.): 0.78 µg/mL; MIC of the drug to bacteria ([11]; Pseudomonas aeruginosa 10124, 10^5CFU/ML each point, 24 hours at 37° C.): 100 µg/mL; MIC of the drug to bacteria ([12]; Shigella flexneri 51573, 10^5CFU/ML each point, 24 hours at 37° C.): 0.39 µg/mL; MIC of the drug to bacteria ([13]; Candida ciferii 41002, 10^5CFU/ML each point, 24 hours at 37° C.): 0.78 µg/mL; MIC (as restated in the conclusions) ([14]; Proteus morganii 49086): 0.78; MIC of the drug to bacteria ([14]; Proteus morganii 49086, 10^5CFU/ML each point, 24 hours at 37° C.): 0.78 µg/mL; antibacterial activities enhanced versus CTM or CRX used solely ([14]; Proteus morganii 49086): one hundred times
2 | CON=C(C(=O)NC1C(=O)N2C(C(=O)OCOC(=O)C3N4C(=O)CC4S(=O)(=O)C3(C)C)=C(COC(N)=O)CSC12)c1ccco1 (centres unmarked) [YR-2, 5-thia-1-aza-bicyclo [4,2,0] octane-2-ene-2-carboxylic acid, 7-[[(2-furane (methoxy imine)acetyl)amino]-3-[[(aminocarbonyloxy)oxy]methyl]-8-oxo-, [[3,3-dimethyl-4,4-dioxy-7-oxo-4-thia-1-aza-bicyclo[3,2,0]heptane-2-group]carbonyloxy]oxy]methyl ester] | stable and persistent | can be detected | no abnormalities were observed in the organs | no obvious abnormal symptoms of toxic reactions | 0% | 0 | 0 | 0 | 0 | 0 | 0 | 0 | 0% | 0 | 0 | 0 | 0 | 0 | 0 | 0 | half-life period (compared with the intravenous controls) [1, 15]: longer half-life period; LD50 at 7 days ([2]; both sexes, mouse, in vivo, po, 5 g/kg, Kunming mice, intragastric administration, once): > 5000 mg/kg; MIC [3, 16]: 0.78 µg/mL; MIC ([4]; Bacillus, 45102, 24 h, read-out: MIC of the drug to bacteria): 6.25 µg/mL; MIC [5, 16]: 0.78 µg/mL; MIC ([6]; Shigella, 51313, 24 h, read-out: MIC of the drug to bacteria): 1.56 µg/mL; MIC ([7]; Bacillus, 49085, 24 h, read-out: MIC of the drug to bacteria): 0.78 µg/mL; MIC ([8]; 24 h, read-out: MIC of the drug to bacteria): 25 µg/mL; MIC ([9]; Shigella, 51081, 24 h, read-out: MIC of the drug to bacteria): 1.56 µg/mL; MIC ([10]; Klebsiella pneumoniae, 46101, 24 h, read-out: MIC of the drug to bacteria): 12.5 µg/mL; MIC ([11]; Pseudomonas aeruginosa, 10124, 24 h, read-out: MIC of the drug to bacteria): 100 µg/mL; MIC ([12]; Shigella flexneri, 51573, 24 h, read-out: MIC of the drug to bacteria): 3.13 µg/mL; MIC ([13]; Candida, 41002, 24 h, read-out: MIC of the drug to bacteria): 50 µg/mL; MIC ([14]; Morganella morganii, 49086, 24 h, read-out: MIC of the drug to bacteria): 25 µg/mL; MIC ([14]; Morganella morganii, 49086, read-out: MIC (as restated in the conclusions)): 25000 µg/mL (≈ 37.3 mM); antibacterial activities enhanced versus CTM or CRX used solely ([14]; Proteus morganii 49086): four times
